Molecules are shown by their SMILES. Entries after “also recorded” stand apart in the source; their conditions may differ.

For data set [1] the following is noted: cited from earlier work.
For data set [2], the system named is MV4-11 AML cells. The experiment in a line: Cell proliferation assay and combination index analysis, MV4-11. It counts as cell-based, human. The conditions noted are these: single agent; depending on the cell type.
From the text: (§1) All data points are an average of triplicate samples.
as §1

Data set [3] deals with MV4-11 tumor xenografts. The data set is described as follows: MV4-11 human tumor xenograft regression model. It counts as in vivo, nude mice. The conditions noted are these: Tipifarnib alone 50 mg/kg po. How it is done:
Female athymic nude mice (CD-1, nu/nu, 9-10 weeks old) were obtained from Charles River Laboratories (Wilmington, Mass.) and were maintained according to NIH standards. All mice were group housed (5 mice/cage) under clean-room conditions in sterile micro-isolator cages on a 12-hour light/dark cycle in a room maintained at 21-22° C. and 40-50% humidity. Mice were fed irradiated standard rodent diet and water ad libitum. All animals were housed in a Laboratory Animal Medicine facility that is fully accredited by the American Association for Assessment and Accreditation of Laboratory Animal Care (AAALAC). […]
The time course of the inhibitory effects of FLT3 inhibitor compounds on the growth of MV4-11 tumors is illustrated in FIG. 1. […] Percent inhibition (% I) of tumor growth was calculated versus tumor growth in the vehicle-treated Control group on the last study day.
Statistical significance versus Control was determined by Analysis of Variance (ANOVA) followed by Dunnett's t-test: * p<0.05; ** p<0.01.
(See FIG. 2). […] Percent Inhibition was calculated versus the mean tumor weight in the vehicle-treated control group. Statistical significance versus Control was determined by ANOVA followed by Dunnett's t-test: ** p<0.01. […]
(A xenograft is tissue or cells of one species grown in another, often human tumour cells in immunodeficient mice.)

Data set [4] is described as follows: Body weight and overt toxicity in tumor-bearing mice. Conditions: alone or in combination. As to the method: Female athymic nude mice weighing no less than 20-21 grams were inoculated subcutaneously in the left inguinal region of the thigh with 5×10^6 tumor cells in a delivery volume of 0.2 mL. For regression studies, the tumors were allowed to grow to a pre-determined size prior to initiation of dosing. […] Mice were dosed orally by gavage with vehicle (control group) or compound at various doses twice-daily (b.i.d.) during the week and once-daily (q.d.) on weekends. […] If tumors in the control mice reached ˜10% of body weight (˜2.0 grams), the study was to be terminated. […] During the study, tumor growth was measured three times-a-week (M, W, F) using electronic Vernier calipers. Tumor volume (mm^3) was calculated using the formula […], where L=length (mm) and W=width (shortest distance in mm) of the tumor. […]
Female athymic nude mice weighing no less than 20-21 grams were inoculated subcutaneously in the left inguinal region of the thigh with 5×10^6 tumor cells in a delivery volume of 0.2 mL. For regression studies, the tumors were allowed to grow to a pre-determined size prior to initiation of dosing. […] During the study, tumor growth was measured three times-a-week (M, W, F) using electronic Vernier calipers. Tumor volume (mm^3) was calculated using the formula […], where L=length (mm) and W=width (shortest distance in mm) of the tumor. […]

Data set [5] concerns the target T1, isolated kinase domain of the human FLT3 receptor (a.a. 571-993) (Homo sapiens, UniProt P36888).
T1 construct: human FLT3 receptor (a.a. 571-993)
T1 sequence (P36888 571-993): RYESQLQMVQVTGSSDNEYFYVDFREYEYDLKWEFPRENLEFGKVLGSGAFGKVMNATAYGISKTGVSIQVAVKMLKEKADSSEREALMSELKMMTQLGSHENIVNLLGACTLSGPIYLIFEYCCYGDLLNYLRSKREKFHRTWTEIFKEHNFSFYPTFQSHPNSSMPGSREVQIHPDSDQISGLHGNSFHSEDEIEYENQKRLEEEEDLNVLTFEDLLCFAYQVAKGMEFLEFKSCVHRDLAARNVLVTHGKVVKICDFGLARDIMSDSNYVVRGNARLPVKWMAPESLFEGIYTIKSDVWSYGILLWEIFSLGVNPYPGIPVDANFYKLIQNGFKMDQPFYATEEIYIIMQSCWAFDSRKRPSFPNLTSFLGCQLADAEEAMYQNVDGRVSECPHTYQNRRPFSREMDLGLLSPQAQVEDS
The experiment in a line: FLT3 fluorescence polarization kinase assay. It counts as biochemical. The source says:
The FLT3 FP assay utilizes the fluorescein-labeled phosphopeptide and the anti-phosphotyrosine antibody included in the Panvera Phospho-Tyrosine Kinase Kit (Green) supplied by Invitrogen. When FLT3 phosphorylates polyGlu4Tyr, the fluorescein-labeled phosphopeptide is displaced from the anti-phosphotyrosine antibody by the phosphorylated poly Glu4Tyr, thus decreasing the FP value. […] The kinase reaction is stopped with the addition of EDTA. The fluorescein-labeled phosphopeptide and the anti-phosphotyrosine antibody are added and incubated for 30 minutes at room temperature.
All data points are an average of triplicate samples. Inhibition and IC50 data analysis was done with GraphPad Prism using a non-linear regression fit with a multiparamater, sigmoidal dose-response (variable slope) equation.

The test system of data set [6] is MV4-11 cells. The experiment in a line: Inhibition of MV4-11 cell proliferation (CellTiterGlo, 72 h). The conditions noted are these: Homo sapiens; 72 h growth inhibition. Type of data set: cell-based. The method in brief: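 MV4-11 (FLT3-ITD) cells, 10,000/well in RPMI/10% FBS with 1 ng/ml GM-CSF, treated 72 h at 37 °C; some runs in 1:1 medium/human plasma. Growth read as ATP luminescence; 100% inhibition = Day 0 RLU, 0% = DMSO at Day 3. IC50 from sigmoidal variable-slope fit of triplicates.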
Background: In ATP-based viability assays light output follows the ATP content of the culture.

Where [7] appears, read: multicenter Phase II trial, relapsed AML.
The mark [8] stands for this setting: patients with relapsed and refractory AML.

`Cn1cncc1C(N)(c1ccc(Cl)cc1)c1ccc2c(c1)c(-c1cccc(Cl)c1)cc(=O)n2C` (single isomer, unassigned; (+)) [Tipifarnib, (+)-6-[amino(4-chlorophenyl)(1-methyl-1H-imidazol-5-yl)methyl]-4-(3-chlorophenyl)-1-methyl-2(1H)-quinolinone]: in data set [1] (setting [7]), the “>50% reduction in bone marrow blasts” value is given as 31 of 50 and the “complete responses (bone marrow blasts <5%)” value is on record as 17 of 50. For the same compound, in data set [1] (setting [8]), the “patients achieving complete remission” value is 2 patients and the response rate is listed as about 30%. Besides, the potency range result in data set [2] is reported as “high nanomolar to high picomolar range”. Besides, the “effect on tumor volume vs control” value in data set [3] (9 days, Day 9) was “not significantly reduced; also recorded: ineffective”. Besides, the “effect on tumor growth” value in data set [3] (16 days) is “ineffective”. In addition, the overt toxicity entry in data set [4] (9-day treatment) was “No overt toxicity”. The overt toxicity result in data set [4] (16-day treatment) is recorded as “No overt toxicity”.
Take `COc1cc2ncnc(N3CC(CNC(=O)Nc4ccc(OC(C)C)cc4)C3)c2cc1OC` [Compound 25, 1-[1-(6,7-Dimethoxy-quinazolin-4-yl)-azetidin-3-ylmethyl]-3-(4-isopropoxy-phenyl)-urea]: the values for the IC50 in data set [5] and in data set [6] were 408 nM and over 10000 nM, respectively.

The IC50 is the concentration that inhibits the measured activity by half. Low values mean greater potency in that assay, high ones weaker potency in that assay.

Values taken from patent publication US20060281771A1, “SYNERGISTIC MODULATION OF FLT3 KINASE USING AMINOQUINOLINE AND AMINOQUINAZOLINE KINASE MODULATORS” (priority 2005, published 2006).
